{"source": "patent US9155308B2", "about": "“Agricultural pesticide formulation” (priority 2013, dated 2015)", "origin": "cited, not measured here", "conditions": "based on animal studies"}
{"smiles": "Cc1c(COC(=O)[C@@H]2[C@H](/C=C(\\Cl)C(F)(F)F)C2(C)C)cccc1-c1ccccc1", "note": "(racemic) [bifenthrin, Bifenthrin]", "values": [{"measurement": "chronic reference dose (RfD)", "setting": "daily exposure", "value": 0.013, "unit": "mg/kg bodyweight/day"}, {"measurement": "acute reference dose (RfD)", "setting": "one-time exposure", "value": 0.328, "unit": "mg/kg bodyweight/day"}]}
